Values of other authors in patent publication US20050228335A1, “Physical, structural, mechanical, electrical and electromechanical features for use in association with electrically assisted delivery devices and systems” (priority 2004, published 2005).

Details: iontophoresis in vitro across human skin

Row | Cumulative delivery compared with lidocaine | SMILES
1 | slightly greater delivery | CCN(CC)CCOC(=O)c1ccc(N)cc1 [procaine]
2 | slightly greater delivery | CCCN(CC)C(CC)C(=O)Nc1c(C)cccc1C (centres unmarked) [etidocaine]
